Like-named read-outs stand apart in the source and are kept apart here.
Tests used:
[1] = test system: normal human fibroblasts (NHF, GM21811); assay: NHF GM21811 RSL3 challenge cell survival (rescue) assay; format: cell-based; conditions: Fibroblast, NHF cells, RSL3 2 micromolar, 48 h, Cell Titer Glo, read-out: NHF GM21811 RSL3 Survival EC50
Description: (§1) In neuronal cells excess extracellular glutamate inhibits the cystine/glutamate antiporter leading to intracellular cysteine depletion, GSH depletion, reactive oxygen species (ROS) production and cell death, a phenomenon termed oxidative glutamate toxicity, oxytosis, or ferroptosis. […] Q7 cells (ST HDH Q7/7; immortalized mouse striatal cells) challenged with cystine-free media or the selective, irreversible GPX4 inhibitor, methyl (1S,3R)-2-(2-chloroacetyl)-1-(4-(methoxycarbonyl)phenyl)-2,3,4,9-tetrahydro-1H-pyrido[3,4-b]indole-3-carboxylate (hereafter referred to as RSL3), recapitulate this phenotype, as do normal human fibroblasts (NHF) challenged with RSL3. An initial screen was performed to identify compounds effective in rescuing Q7 and/or NHF cells from death resulting from cystine deprivation or RSL3 challenge. This method is further described in Yonezawa et al., J. Neurochem 67, 566-573 (1996), Li et al., J Neurosci., 23, 5816-5826 (2003), Yang and Stockwell, Chem Biol., 15: 234-45 (2008), and Yang et al., Cell 156, 317-331 (2014). See also Hinman A, Holst C R, Latham J C, et al. Vitamin E hydroquinone is an endogenous regulator of ferroptosis via redox control of 15-lipoxygenase. PLoS One. 2018; 13(8):e0201369. Published 2018 Aug. 15. doi:10.1371/journal.pone.0201369; and Kahn-Kirby A H, Amagata A, Maeder C I, et al. Targeting ferroptosis: A novel therapeutic strategy for the treatment of mitochondrial disease-related epilepsy. PLoS One. 2019; 14(3):e0214250. Published 2019 Mar. 28. doi:10.1371/journal.pone.0214250.
(§2) DMEM (Catalog no. 11995-040), DMEM without Cystine (Catalog no. 21013-024), DMEM without Glucose (Catalog A1443001), PBS (Phosphate buffered saline), Penicillin-streptomycin mix, L-Glutamine, Glucose, Phenol Red, and Pyruvate were purchased from ThermoFisher Scientific (Gibco). Fetal Bovine Serum was obtained from Mediatech, Inc., or Sigma Aldrich. Mouse striatum derived ST HDH Q7/7 (Q7) and normal human skin fibroblast (NHF, product number GM21811) cells were obtained from the Coriell Institute. Methionine and Vitamin K2 were purchased from Sigma Aldrich. RSL3 was synthesized as previously described (see e.g. US Patent Publication US2010/0081654). Cell Titer Glo 2.0 was purchased from Promega. Q7 cell culture medium (Q7 growth medium) was made by combining 50 mL Fetal Bovine Serum, 100 U/mL penicillin, and 100 microgram/mL streptomycin; DMEM was added to make the volume up to 500 mL. Assay medium for the Cystine Deprivation assay was prepared by combining 50 mL Fetal Bovine Serum, 100 U/mL penicillin, 100 microgram/mL streptomycin, 4 mM L-Glutamine, 1 mM Pyruvate and 30 mg/L Methionine; DMEM without Cystine was added to make the volume up to 500 mL. NHF cell culture medium (NHF growth medium) was made by combining 50 mL Fetal Bovine Serum, 100 U/mL penicillin, 100 microgram/mL streptomycin, 2.8 mL 20% Glucose solution (final concentration 6 mM), L-glutamine (final concentration 2 mM), phenol red (final concentration 15 mg/L); DMEM without Glucose was added to make the volume up to 500 mL. Assay medium for the RSL3 challenge assay was identical to Growth medium. While not in use during the course of the experiments, these solutions were stored at 4° C. The cells were grown in 150-cm^2 tissue culture-treated flasks. Every third or fourth day, the cells were sub-cultured by trypsinization and re-seeded at a cell density of 600,000 (Q7) or 300,000 (NHF) cells per flask.
(§3) Q7 or NHF cells were cultured routinely as described herein. For 384-well cell survival assays, cells were seeded in clear bottom, black wall 384-well tissue culture-treated polystyrene plates by re-suspending a cell suspension at a density of 50,000 cells/mL in growth medium, then dispensing 60 microliters of cell suspension per well using either an electronic multichannel pipette or a Multidrop™ Combi Reagent Dispenser (ThermoFisher Scientific), corresponding to 3,000 cells/well. […]

[2] = test system: Q7 cells (ST HDH Q7/7; immortalized mouse striatal cells); assay: Q7 Cystine Deprivation cell survival (rescue) assay; format: cell-based; conditions: 18 h, read-out: Q7 Cystine Deprivation Survival EC50
Description: as §1, §2, §3

[3] = Q7 cells, cystine-free medium, Cell Titer Glo, 50% relative viability vs Vitamin K2 (1 micromolar)

Work on `CCC1=C(Cc2ccc(C(F)F)cn2)C(=O)c2c(F)cc(F)cc2C1=O` [Example 67, 3-((5-(difluoromethyl)pyridin-2-yl)methyl)-2-ethyl-5,7-difluoronaphthalene-1,4-dione] yielded an EC50 [1] of under 50 nM.
For `O=C1C(C2CC2)=C(Cc2ccc(C(F)(F)F)cn2)C(=O)c2c(F)cc(F)cc21` [Example 65, 2-cyclopropyl-5,7-difluoro-3-((5-(trifluoromethyl)pyridin-2-yl)methyl)naphthalene-1,4-dione], the EC50 [1] was under 50 nM.
In the case of `O=C1C(Cc2ccc(C(F)(F)F)cn2)=C(CC2COC2)C(=O)c2c(F)ccc(F)c21` [Example 90, 5,8-difluoro-2-(oxetan-3-ylmethyl)-3-((5-(trifluoromethyl)pyridin-2-yl)methyl)naphthalene-1,4-dione], the EC50 [1] is reported as under 50 nM.
`COc1cnc(CC2=C(C)C(=O)c3ccccc3C2=O)cc1C(F)(F)F` [Example 145, 2-((5-methoxy-4-(trifluoromethyl)pyridin-2-yl)methyl)-3-methylnaphthalene-1,4-dione] showed an EC50 [1] of under 50 nM.
`O=C1C(Cc2ccc(C(F)(F)F)cn2)=C(C2CC2)C(=O)c2c(F)ccc(F)c21` [Example 91, 2-cyclopropyl-5,8-difluoro-3-((5-(trifluoromethyl)pyridin-2-yl)methyl)naphthalene-1,4-dione] showed an EC50 [1] of under 50 nM.
`CCC1=C(Cc2ccc(C(F)(F)F)c(C#N)n2)C(=O)c2c(F)cc(F)cc2C1=O` [Example 93, 6-((3-ethyl-6,8-difluoro-1,4-dioxo-1,4-dihydronaphthalen-2-yl)methyl)-3-(trifluoromethyl)picolinonitrile] showed an EC50 [1] of under 50 nM.
`[2H]C([2H])([2H])C1=C(Cc2ccc(C(F)(F)F)c(C(=O)O)n2)C(=O)c2c(F)ccc(F)c2C1=O` [Example 127, 6-((5,8-difluoro-3-(methyl-d3)-1,4-dioxo-1,4-dihydronaphthalen-2-yl)methyl)-3-(trifluoromethyl)picolinic acid] showed an EC50 [1] of 50 to 250 nM.
Work on `CCC1=C(Cc2ccc(CC(F)(F)F)cn2)C(=O)c2c(F)ccc(F)c2C1=O` [Example 133, 2-ethyl-5,8-difluoro-3-((5-(2,2,2-trifluoroethyl)pyridin-2-yl)methyl)naphthalene-1,4-dione] yielded an EC50 [1] of under 50 nM.
In the case of `N#Cc1nc(CC2=C(C3CC3)C(=O)c3cc(F)ccc3C2=O)ccc1C(F)(F)F` [Example 96, 6-((3-cyclopropyl-6-fluoro-1,4-dioxo-1,4-dihydronaphthalen-2-yl)methyl)-3-(trifluoromethyl)picolinonitrile], the EC50 [1] is reported as under 50 nM.
`CC1=C(Cc2ccc(C(F)(F)F)c[n+]2[O-])C(=O)c2ccccc2C1=O` [Example 150, 2-((3-methyl-1,4-dioxo-1,4-dihydronaphthalen-2-yl)methyl)-5-(trifluoromethyl)pyridine 1-oxide] showed an EC50 [1] of under 50 nM.
Compound `CC1=C(Cc2ccc(C(N)=O)nn2)C(=O)c2ccccc2C1=O` [Example 14, 6-((3-methyl-1,4-dioxo-1,4-dihydronaphthalen-2-yl)methyl)pyridazine-3-carboxamide] has an EC50 [2, 3] of under 50 nM.
Work on `COc1nnc(CC2=C(C)C(=O)c3ccccc3C2=O)cc1C(F)(F)F` [Example 17, 2-((6-methoxy-5-(trifluoromethyl)pyridazin-3-yl)methyl)-3-methylnaphthalene-1,4-dione] yielded an EC50 [2, 3] of under 50 nM.
For `CC(C)CCC1=C(Cc2ccc(C(F)(F)F)cn2)C(=O)c2ccccc2C1=O` [Example 34, 2-isopentyl-3-((5-(trifluoromethyl)pyridin-2-yl)methyl)naphthalene-1,4-dione], the EC50 [2, 3] was 50 to 250 nM.
Compound `Cc1ccc(CC2=C(C3CC3)C(=O)c3ccccc3C2=O)nc1` [Example 38, 2-cyclopropyl-3-((5-methylpyridin-2-yl)methyl)naphthalene-1,4-dione] has an EC50 [2, 3] of under 50 nM.
`CCCC1=C(Cc2cc(C#N)c(F)cn2)C(=O)c2ccccc2C1=O` [Example 110, 2-((1,4-dioxo-3-propyl-1,4-dihydronaphthalen-2-yl)methyl)-5-fluoroisonicotinonitrile] gave an EC50 [2, 3] of under 50 nM.
`CCCC1=C(Cc2ccc(C)cn2)C(=O)c2ccccc2C1=O` [Example 115, 2-((5-methylpyridin-2-yl)methyl)-3-propylnaphthalene-1,4-dione] showed an EC50 [2, 3] of under 50 nM.
`CC1=C(Cc2ccc(C)cn2)C(=O)c2ccccc2C1=O` [Example 7, 2-methyl-3-((5-methylpyridin-2-yl)methyl)naphthalene-1,4-dione] showed an EC50 [2, 3] of under 50 nM.
In the case of `O=C1C=C(Cc2ccc(C(F)(F)F)cn2)C(=O)c2ccccc21` [Example 25, 2-((5-(trifluoromethyl)pyridin-2-yl)methyl)naphthalene-1,4-dione], the EC50 [2, 3] is reported as 250 to 1000 nM.
`CC1=C(Cc2cc(C)c(C)nn2)C(=O)c2ccccc2C1=O` [Example 13, 2-((5,6-dimethylpyridazin-3-yl)methyl)-3-methylnaphthalene-1,4-dione] gave an EC50 [2, 3] of under 50 nM.
Compound `CCCC1=C(Cc2ncc(C(F)(F)F)cc2F)C(=O)c2ccccc2C1=O` [Example 108, 2-((3-fluoro-5-(trifluoromethyl)pyridin-2-yl)methyl)-3-propylnaphthalene-1,4-dione] has an EC50 [2, 3] of 50 to 250 nM.
`CC1=C(Cc2ccc(C(F)(F)F)cn2)C(=O)c2cc(F)ccc2C1=O` [Example 45, 6-fluoro-2-methyl-3-((5-(trifluoromethyl)pyridin-2-yl)methyl)naphthalene-1,4-dione] showed an EC50 [2, 3] of under 50 nM.
`CC1=C(Cc2cccnn2)C(=O)c2ccccc2C1=O` [Example 12, 2-methyl-3-(pyridazin-3-ylmethyl)naphthalene-1,4-dione] gave an EC50 [2, 3] of under 50 nM.
`CC1=C(Cc2cc(C)cnn2)C(=O)c2ccccc2C1=O` [Example 15, 2-methyl-3-((5-methylpyridazin-3-yl)methyl)naphthalene-1,4-dione] was tested, and the EC50 [2, 3] was under 50 nM.
`COc1cc2c(cc1OC)C(=O)C(Cc1ccc(C(F)(F)F)cn1)=C(C)C2=O` [Example 41, 6,7-dimethoxy-2-methyl-3-((5-(trifluoromethyl)pyridin-2-yl)methyl)naphthalene-1,4-dione] gave an EC50 [2] of under 50 nM.
`COc1ccc2c(c1)C(=O)C(C)=C(Cc1ccc(C(F)(F)F)cn1)C2=O` [Example 37, 6-methoxy-3-methyl-2-((5-(trifluoromethyl)pyridin-2-yl)methyl)naphthalene-1,4-dione] was tested, and the EC50 [2, 3] was under 50 nM.
`CCOc1cnnc(CC2=C(C)C(=O)c3ccccc3C2=O)c1` [Example 16, 2-((5-ethoxypyridazin-3-yl)methyl)-3-methylnaphthalene-1,4-dione] showed an EC50 [2, 3] of under 50 nM.
Work on `CC1=C(Cc2cc(C(F)(F)F)cnn2)C(=O)c2ccccc2C1=O` [Example 11, 2-methyl-3-((5-(trifluoromethyl)pyridazin-3-yl)methyl)naphthalene-1,4-dione] yielded an EC50 [2, 3] of under 50 nM.
`COc1ccc2c(c1)C(=O)C(Cc1ccc(C(F)(F)F)cn1)=C(C)C2=O` [Example 36, 6-methoxy-2-methyl-3-((5-(trifluoromethyl)pyridin-2-yl)methyl)naphthalene-1,4-dione] showed an EC50 [2, 3] of under 50 nM.
`CC1=C(Cc2cccc(C(F)(F)F)n2)C(=O)c2ccccc2C1=O` [Example 8, 2-methyl-3-((6-(trifluoromethyl)pyridin-2-yl)methyl)naphthalene-1,4-dione] was tested, and the EC50 [2, 3] was under 50 nM.

— patent US20230002324A1, “NAPHTHOQUINONE DERIVATIVES FOR TREATMENT OF OXIDATIVE STRESS DISORDERS” (PTC THERAPEUTICS, INC., priority 2019, published 2023)
